Reference: patent publication US20090203634A1, “Compositions and Uses of Amooranin Compounds” (Variety Children's Hospital d/b/a Miami Children's Hospital, priority 2005, published 2009)
Structures can show the parent of a compound that is named as a salt. Where two headings read alike, the source gives them in different places.

Key:
CEM = test: MTT cytotoxicity assay (Examples 1-5); type: cell-based, human; settings: Homo sapiens, CCRF-CEM
Source text: (§1) Cytotoxicity Assay (Examples 1-5). […] Cell proliferation kit I (MTT) from Roche Diagnostics GmbH (Indianapolis, Ind.) was used for cytotoxicity assays and manufacturers protocol was followed for the assay.

CEM/VLB = test: MTT cytotoxicity assay (Examples 1-5); type: cell-based, human; settings: for IC50: Homo sapiens, read-out: DOX IC50, CEM/VLB
Source text: as §1

SW620/Ad-300 = test: MTT cytotoxicity assay (Examples 1-5); type: cell-based, human
Source text: as §1

[1] = system: SW620 human tumor xenografts; test: Xenograft studies with AMR in nude mice; type: in vivo; settings: 2 mg/kg
Procedure: Xenograft studies with AMR in nude mice. Male athymic nude (nu/nu) mice of the BALB/c strain (4-5 weeks old) were purchased from Taconic Labs, NY. SW620 colon carcinoma cells (10^6/site) in 0.1 ml of Hank's balanced salt solution were injected subcutaneously into the right flank of the nude mice using a 21 gauge needle. When the tumors reached approximately 0.5 cm^3 size in volume (usually 14 days), chemotherapy with AMR was started involving six animals in each group with almost similar size tumors. […] AMR was dissolved in 1:1 mixture of Cremophor EL and ethanol for administration and the control treatments were doxorubicin dissolved in phosphate dissolved saline and saline alone (0 mg/kg). Tumor size (length and width) was recorded on every fifth day of treatment along with body weight and survival data. Tumor volume was calculated using the following formula: […]
Tumor growth rate was calculated as mean V1/V0 where V1 is the volume on the evaluation day of treatment effect and V0 is that on the first day of treatment. The growth rate index and therapeutic index estimates were calculated using the following formulae:
Therapeutic Ratio=100—Tumor Growth Rate Index (GRI)

MCF-7/TH = test: TUNEL assay of DNA fragmentation; type: cell-based, human; settings: DNase-treated positive control
Procedure: (§2) Analysis of DNA fragmentation by agarose gel electrophoresis. To assess the pattern of DNA cleavage caused by AMR, agarose gel electrophoresis was performed as described by Cohen and Duke (Cohen, J. J. and Duke, R. C. J Immunol, 1984, 132:38-42). Briefly, control and drug-treated cells (2×10^6 cells) were lysed with 0.5 ml lysis buffer containing 0.2% Triton X-100 at room temperature for 30 minutes. The supernatant fractions were collected by centrifugation at 12,000×g for 30 minutes. The DNA in these fractions was precipitated overnight with 100 μl 5 M sodium chloride and 0.5 ml 2-isopropanol at −20° C. The DNA was dissolved in 20 μl of 10 mM Tris-HCl (pH 7.4) and 1 mM EDTA buffer. RNase (10 units) was added to the samples before incubating at 60° C. for 1 hour. An equal volume of loading buffer was added afterwards and the samples were subjected to electrophoresis on a 2% agarose gel in Tris borate buffer at 50 V for 3 hours. The agarose gel was stained with ethidium bromide, and DNA fragmentation pattern was visualized in a UV transilluminator. AMR-induced DNA fragmentation was also analyzed by TUNEL assay using in situ cell detection kit according to manufacturer's instructions. Briefly, cells were permeabilized in a solution containing 0.1% Triton X-100 and 0.1% (w/v) sodium citrate for 2 minutes. After washing in PBS, cells were incubated with label solution and terminal transferase. Cells were incubated without terminal deoxynucleotidyl transferase was used as negative control. DNase (1 μg/ml) treated cells incubated with label solution in the presence of terminal deoxynucleotidyl transferase (TUNEL reaction mixture) was used as positive control and the details of TUNEL assay have been described earlier (Ramachandran, C. et al. Anticancer Res, 1997, 17:3369-3376).

MCF-10A = test: TUNEL assay of DNA fragmentation; type: cell-based, human; settings: DNase-treated positive control
Procedure: as §2

MCF-7 = test: TUNEL assay of DNA fragmentation; type: cell-based, human; settings: DNase-treated positive control
Procedure: as §2

Row | Compound | IC50 (CEM; read-out: DOX IC50, 48 hours exposure) [µg/mL] | IC50 (CEM; read-out: DOX IC50, mean ± SD (n = 3)) [µM] | resistance to DOX (CEM/VLB; CEM/VLB versus CEM) | IC50 (CEM/VLB; 48 hours exposure) [µg/mL] | IC50 (CEM/VLB; mean ± SD (n = 3)) [µM] | IC50 (SW620/Ad-300; Homo sapiens, SW620/AD300, read-out: DOX IC50, SW620/Ad-300, mean ± SD (n = 3)) [µM] | resistance to DOX (SW620/Ad-300; SW620/Ad-300 versus SW620, based on IC50 values) | Survival (%) [1] [%] | apoptotic cells (TUNEL) (MCF-7/TH) | apoptotic cells (TUNEL) (MCF-10A) | apoptotic cells (TUNEL) (MCF-7)
1 | COc1cccc2c1C(=O)c1c(O)c3c(c(O)c1C2=O)C[C@@](O)(C(=O)CO)C[C@@H]3O[C@H]1C[C@H](N)[C@H](O)[C@H](C)O1 [DOX, Doxorubicin hydrochloride, reference compound] | 0.12 | 0.23 ± 0.02 | approximately 112 fold | 13.4 | 23.1 ± 0.78 | 28.9 ± 0.95 | approximately 125 fold | 83.3 | – | – | –
2 | DNase [reference compound] | – | – | – | – | – | – | – | – | more than 95% | more than 95% | more than 95%
